Columns and labels:
HepG2 cells [1] = assay: Wound healing; type: cell-based, human
caspase-3 = assay: Caspase-3 level in HepG2 cells; type: cell-based, human
MCF-7 = assay: MTT anti-proliferative assay on MCF-7; details: Homo sapiens, MCF7, read-out: In vitro cytotoxicity IC50 MCF-7
HepG2 = assay: MTT anti-proliferative assay on HepG2; details: Homo sapiens, HepG2, read-out: In vitro cytotoxicity IC50 HepG2
HepG2 cells [2] = assay: Apoptosis assay, Annexin V-FITC/PI flow cytometry; type: cell-based, human
VEGFR-2 [3] = assay: MM-GBSA binding free energy and decomposition; details: 15a versus sorafenib
VEGFR-2 [4] = biological target: VEGFR-2 (Homo sapiens, UniProt P35968); assay: In vitro VEGFR-2 inhibition; type: biochemical
Chain of VEGFR-2 (Homo sapiens, UniProt P35968) (P35968 20-1356): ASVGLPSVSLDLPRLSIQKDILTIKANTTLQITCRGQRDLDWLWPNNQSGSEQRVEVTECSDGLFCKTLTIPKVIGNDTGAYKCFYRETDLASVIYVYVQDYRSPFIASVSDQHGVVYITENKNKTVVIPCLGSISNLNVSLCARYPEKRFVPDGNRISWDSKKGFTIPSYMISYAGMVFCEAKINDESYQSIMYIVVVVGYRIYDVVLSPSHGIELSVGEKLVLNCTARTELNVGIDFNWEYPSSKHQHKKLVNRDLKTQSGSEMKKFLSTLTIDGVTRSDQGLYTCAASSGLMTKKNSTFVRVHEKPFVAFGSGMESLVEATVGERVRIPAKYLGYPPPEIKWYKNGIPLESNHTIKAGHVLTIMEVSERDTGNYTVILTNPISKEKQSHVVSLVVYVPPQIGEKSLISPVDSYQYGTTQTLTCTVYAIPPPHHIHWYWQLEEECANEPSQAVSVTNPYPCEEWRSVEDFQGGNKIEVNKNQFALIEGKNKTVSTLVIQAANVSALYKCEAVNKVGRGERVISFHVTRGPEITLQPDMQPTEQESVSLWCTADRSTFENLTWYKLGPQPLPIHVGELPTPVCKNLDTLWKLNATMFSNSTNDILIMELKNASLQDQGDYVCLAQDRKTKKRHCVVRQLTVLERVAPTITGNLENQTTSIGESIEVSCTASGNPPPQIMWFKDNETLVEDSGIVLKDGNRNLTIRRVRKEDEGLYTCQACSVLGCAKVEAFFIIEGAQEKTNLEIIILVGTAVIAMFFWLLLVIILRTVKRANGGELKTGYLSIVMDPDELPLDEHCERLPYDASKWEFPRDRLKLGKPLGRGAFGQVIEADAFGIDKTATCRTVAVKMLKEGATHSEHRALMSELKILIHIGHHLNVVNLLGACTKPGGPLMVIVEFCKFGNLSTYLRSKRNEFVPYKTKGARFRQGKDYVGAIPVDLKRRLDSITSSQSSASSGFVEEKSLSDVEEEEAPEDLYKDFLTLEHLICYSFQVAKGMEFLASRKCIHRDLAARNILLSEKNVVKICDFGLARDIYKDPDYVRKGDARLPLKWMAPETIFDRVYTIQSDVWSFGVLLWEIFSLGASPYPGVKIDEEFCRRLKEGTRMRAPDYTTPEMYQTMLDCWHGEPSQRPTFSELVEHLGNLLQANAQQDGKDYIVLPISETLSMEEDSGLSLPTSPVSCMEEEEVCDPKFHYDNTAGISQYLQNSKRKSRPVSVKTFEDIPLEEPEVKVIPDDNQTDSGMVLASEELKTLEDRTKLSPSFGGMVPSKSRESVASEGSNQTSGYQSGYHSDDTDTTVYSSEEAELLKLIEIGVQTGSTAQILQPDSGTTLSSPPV

caspase-9 = assay: Caspase-9 level in HepG2 cells; type: cell-based, human
Vero cells = assay: Safety assay on non-cancerous Vero cells; type: cell-based
[5] = HepG2, 0.76 μM, control HepG2 = 1

SMILES: CC(=NNC(=O)c1cccc(Br)c1)c1ccc(NC(=O)Cn2c(=O)c3c(ncn3C)n(C)c2=O)cc1 [Compound 15a, N-(4-(1-(2-(3-Bromobenzoyl)hydrazono)ethyl)phenyl)-2-(3,7-dimethyl-2,6-dioxo-2,3,6,7-tetrahydro-1H-purin-1-yl)acetamide]
- decrease of scratch width (HepG2 cells [1]; HepG2, within 48 hours, untreated 65.9%): 34.17%
- At 0 h Area (HepG2 cells [1]; HepG2 scratch, 0 h): 1000.667
- At 0 h Width (HepG2 cells [1]; HepG2 scratch, 0 h): 999.7462
- At 48 h Width (HepG2 cells [1]; HepG2 scratch, 48 h, control 339.5385): 657.7792
- At 48 h Area (HepG2 cells [1]; HepG2 scratch, 48 h, control 340.5): 658.6667
- RM (HepG2 cells [1]; HepG2 scratch, after 48 hours, control 13.74681): 7.124 μm
- Wound closure (HepG2 cells [1]; HepG2 scratch, after 48 hours, control 65.96135): 34.18 % μm^2
- increase of caspase-3 level compared to control (caspase-3; HepG2, 0.76 μM (IC50 value)): 3.45 fold
- Protein expression Caspase-3 (caspase-3; [5]): 3.451
- IC50 (MCF-7): 1080 ± 20 nM
- IC50 (HepG2): 760 ± 10 nM
- Apoptosis Late (HepG2 cells [2]; HepG2, 0.76 µM for 72 h, control 0.13): 12.17
- Apoptosis Early (HepG2 cells [2]; HepG2, 0.76 µM for 72 h, control 0.71): 9.63
- Necrosis (HepG2 cells [2]; HepG2, 0.76 µM for 72 h, control 2.22): 7.69
- Apoptosis Total (HepG2 cells [2]; HepG2, 0.76 µM for 72 h, control 3.06): 29.49
- proportion of HepG2 cells in late-stage apoptosis (HepG2 cells [2]; HepG2, from 0.71% in control): 9.63%
- proportion of HepG2 cells in early-stage apoptosis (HepG2 cells [2]; HepG2, from 3.06% in control): 29.49%
- MM-GBSA binding energy smaller than that of the reference compound by (VEGFR-2 [3]): 8.5 kcal/mol
- IC50 (VEGFR-2 [4]): 239 nM
- increase of caspase-9 level compared to control (caspase-9; HepG2, 0.76 μM (IC50 value)): 2.37 fold
- Protein expression Caspase-9 (caspase-9; [5]): 2.378
- IC50 (Vero cells; Chlorocebus sabaeus, Vero, read-out: IC50 against Vero cells): 75200 nM
- selectivity index against HepG2 (Vero cells; based on Vero IC50 versus HepG2 IC50): 98.97
- selectivity index against MCF7 (Vero cells; based on Vero IC50 versus MCF-7 IC50): 69.64

SMILES: CNC(=O)c1cc(Oc2ccc(NC(=O)Nc3ccc(Cl)c(C(F)(F)F)c3)cc2)ccn1 [Sorafenib, reference compound]
- IC50 (MCF-7): 3170 ± 10 nM
- IC50 (HepG2): 2240 ± 60 nM

SMILES: CC(=NNC(=O)c1ccccc1Cl)c1ccc(NC(=O)Cn2c(=O)c3c(ncn3C)n(C)c2=O)cc1 [Compound 15b, N-(4-(1-(2-(2-Chlorobenzoyl)hydrazono)ethyl)phenyl)-2-(3,7-dimethyl-2,6-dioxo-2,3,6,7-tetrahydro-1H-purin-1-yl)acetamide]
- IC50 (MCF-7): 650 ± 10 nM
- IC50 (HepG2): 780 ± 20 nM

SMILES: CC(=NNC(=O)c1cccc(Cl)c1)c1cccc(NC(=O)Cn2c(=O)c3c(ncn3C)n(C)c2=O)c1 [Compound 16, N-(3-(1-(2-(3-Chlorobenzoyl)hydrazono)ethyl)phenyl)-2-(3,7-dimethyl-2,6-dioxo-2,3,6,7-tetrahydro-1H-purin-1-yl)acetamide]
- IC50 (MCF-7): 2470 ± 40 nM
- IC50 (HepG2): 1230 ± 30 nM

SMILES: CC(=NNC(=O)c1cccnc1)c1ccc(NC(=O)Cn2c(=O)c3c(ncn3C)n(C)c2=O)cc1 [Compound 17, 2-(3,7-Dimethyl-2,6-dioxo-2,3,6,7-tetrahydro-1H-purin-1-yl)-N-(4-(1-(2-nicotinoylhydrazono)ethyl)phenyl)acetamide]
- IC50 (MCF-7): 800 ± 10 nM
- IC50 (HepG2): 1050 ± 10 nM
